test system: HCV 1b genotype; assay: HCV replicon assay (HCV-neo replicon cells, wild-type); type: cell-based, Hepatitis C virus; details: HCV 1b genotype replicon; class symbol; read-out: EC50 Range against HCV 1b
Method: An HCV Replicon assay was utilized in the present disclosure, and was prepared, conducted and validated as described in commonly owned PCT/US2006/022197 and in O'Boyle et al., Antimicrob. Agents Chemother, 49(4):1346-1353 (April 2005). Assay methods incorporating luciferase reporters have also been used as described (Apath.com).
HCV-neo replicon cells and replicon cells containing resistance substitutions in the NS5A region were used to test the currently described family of compounds.
The compounds were determined to have differing degrees of reduced inhibitory activity on cells containing mutations vs. the corresponding inhibitory potency against wild-type cells. Thus, the compounds of the present disclosure can be effective in inhibiting the function of the HCV NS5A protein and are understood to be as effective in combinations as previously described in application PCT/US2006/022197 and commonly owned WO 04/014852. It should be understood that the compounds of the present disclosure can inhibit multiple genotypes of HCV. […] In one embodiment, compounds of the present disclosure are inhibitory versus 1a, 1b, 2a, 2b, 3a, 4a, and 5a genotypes.

Q: Which EC50 does the source give for `CC(C)(C)OC(=O)N1CCCC1(C)C(=O)N1CCC[C@H]1C(=O)Nc1ccc(-c2cnc(-c3ccc(NC(=O)[C@@H]4CCCN4C(=O)C4(C)CCCN4C(=O)OC(C)(C)C)cc3)o2)cc1` (stereo partly drawn) [Example D-29, di-tert-butyl 2,2′-(1,3-oxazole-2,5-diylbis(4,1-phenylenecarbamoyl(2S)-2,1-pyrrolidinediylcarbonyl))bis(2-methyl-1-pyrrolidinecarboxylate)] here?
A: Its EC50 is 1000 to 10000 nM.

same assay, conditions: HCV 1b genotype replicon; class symbols; read-out: EC50 Range against HCV 1b

Q: How did the EC50 turn out when `CN(C)C(Cn1cncn1)C(=O)N1CCC[C@H]1C(=O)Nc1ccc(-c2cnc(-c3ccc(NC(=O)[C@@H]4CCCN4C(=O)C(Cn4cncn4)N(C)C)cc3)o2)cc1` (stereo partly drawn) [JR-12, (2S)-N,N′-(4,4′-(oxazole-2,5-diyl)bis(4,1-phenylene))bis(1-(2-(dimethylamino)-3-(1H-1,2,4-triazol-1-yl)propanoyl)pyrrolidine-2-carboxamide)] was run?
A: Its EC50 is 100 to 999 nM.

Q: `CN(C)[C@H](C(=O)N1CCC[C@H]1C(=O)Nc1ccc(-c2cnc(-c3ccc(NC(=O)[C@@H]4CCCN4C(=O)[C@H]([C@H](O)c4ccccc4)N(C)C)cc3)o2)cc1)[C@H](O)c1ccccc1` [JR-14, (S,R,2S)-N,N′-(4,4′-(oxazole-2,5-diyl)bis(4,1-phenylene))bis(1-((2S,3R)-2-(dimethylamino)-3-hydroxy-3-phenylpropanoyl)pyrrolidine-2-carboxamide)] was tested. Which EC50 did it give?
A: Its EC50 is 1000 to 10000 nM.

same assay, conditions: Hepatitis C virus, HCV 1b genotype replicon; class symbol; read-out: EC50 Range against HCV 1b

Q: How did the EC50 turn out when `O=C(Nc1ccc(-c2nnc(-c3ccc(NC(=O)[C@@H]4CCCN4C(=O)Cc4ccccc4)cc3)o2)cc1)[C@@H]1CCCN1C(=O)Cc1ccccc1` [MS-9, (2S,2′S)-N,N′-(4,4′-(1,3,4-oxadiazole-2,5-diyl)bis(4,1-phenylene))bis(1-(2-phenylacetyl)pyrrolidine-2-carboxamide)] was run?
A: Its EC50 is 100 to 999 nM.

Q: `CC(=O)N1CCC[C@H]1C(=O)Nc1ccc(-c2cnc(-c3ccc(NC(=O)C4CCN(C(=O)OCc5ccccc5)C4)cc3)o2)cc1` (stereo partly drawn) [MS-4, benzyl 3-((4-(5-(4-((1-acetyl-L-prolyl)amino)phenyl)-1,3-oxazol-2-yl)phenyl)carbamoyl)-1-pyrrolidinecarboxylate] was tested. Which EC50 did it give?
A: The EC50 was 100 to 999 nM.

Q: `O=C(Nc1ccc(-c2n[nH]nc2-c2ccc(NC(=O)[C@@H]3CCCN3C(=O)Cc3ccccc3)cc2)cc1)[C@@H]1CCCN1C(=O)Cc1ccccc1` [OL-20, (2S,2′S)-N,N′-(1H-1,2,3-triazole-4,5-diyldi-4,1-phenylene)bis[1-(phenylacetyl)-2-pyrrolidinecarboxamide]] was tested. Which EC50 did it give?
A: The EC50 was 4.57 to 99 nM.

Q: `C[C@H](NC(=O)[C@@](C)(O)c1ccccc1)C(=O)Nc1ccc(-c2cnc(-c3ccc(NC(=O)[C@H](C)NC(=O)[C@@](C)(O)c4ccccc4)cc3)o2)cc1` [OL-56, ((2S,2′S)-N,N′-(1,3-oxazole-2,5-diylbis(4,1-phenyleneimino((2S)-1-oxo-1,2-propanediyl)))bis(2-hydroxy-2-phenylpropanamide))] was tested. Which EC50 did it give?
A: The EC50 was less than 4.57 nM.

Q: With `COc1cccc2c(C(=O)N3CCC[C@H]3C(=O)Nc3ccc(-c4cc(-c5ccc(NC(=O)[C@@H]6CCCN6C(=O)c6nc(Cl)cc7c(OC)cccc67)cc5)[nH]n4)cc3)nc(Cl)cc12` [OL-41, (2S,2′S)-N,N′-(1H-pyrazole-3,5-diyldi-4,1-phenylene)bis(1-((3-chloro-5-methoxy-1-isoquinolinyl)carbonyl)-2-pyrrolidinecarboxamide)] as the compound, how does the EC50 read?
A: The EC50 was 4.57 to 99 nM.

Q: For `O=C(Nc1ccc(-c2cnc(-c3ccc(NC(=O)[C@@H]4CCCN4C(=O)c4cccc(F)n4)cc3)o2)cc1)[C@@H]1CCCN1C(=O)c1cccc(F)n1` [OL-50, (2S,2′S)-N,N′-(1,3-oxazole-2,5-diyldi-4,1-phenylene)bis(1-((6-fluoro-2-pyridinyl)carbonyl)-2-pyrrolidinecarboxamide)], which EC50 is on record?
A: Its EC50 is 100 to 999 nM.

Q: Which EC50 does the source give for `CC(=O)N1CCC[C@H]1C(=O)Nc1ccc(-c2nc(-c3ccc(NC(=O)[C@@H]4C=CCN4C(=O)c4cccs4)cc3)cs2)cc1` [Example D-47, (2S)-N-[4-[2-[4-[[[(2S)-1-acetyl-2-pyrrolidinyl]carbonyl]amino]phenyl]-4-thiazolyl]phenyl]-2,5-dihydro-1-(2-thienylcarbonyl)-1H-pyrrole-2-carboxamide] here?
A: The EC50 was 1000 to 10000 nM.

Q: For `CN(C)[C@@H](C(=O)N1CCC[C@H]1C(=O)Nc1ccc(-c2ccc(-c3ccc(NC(=O)[C@@H]4CCCN4C(=O)[C@H](O)c4ccccc4)cc3)o2)cc1)c1ccccc1` [JG-66, (2S)-1-((2R)-2-(dimethylamino)-2-phenylacetyl)-N-(4-(5-(4-((((2S)-1-((2R)-2-hydroxy-2-phenylacetyl)-2-pyrrolidinyl)carbonyl)amino)phenyl)-2-furyl)phenyl)-2-pyrrolidinecarboxamide], which EC50 is on record?
A: Its EC50 is less than 4.57 nM.

Q: `C[C@H](NC(=O)[C@](C)(O)c1ccccc1)C(=O)Nc1ccc(-c2cc(-c3ccc(NC(=O)[C@H](C)NC(=O)[C@](C)(O)c4ccccc4)cc3)[nH]n2)cc1` [OL-46, (2R,2′R)-N,N′-(1H-pyrazole-3,5-diylbis(4,1-phenyleneimino((2S)-1-oxo-1,2-propanediyl)))bis(2-hydroxy-2-phenylpropanamide)] was tested. Which EC50 did it give?
A: The EC50 was 4.57 to 99 nM.

Q: With `O=C(Nc1ccc(-c2nnc(-c3ccc(NC(=O)[C@@H]4CCCN4C(=O)CC4CC4)cc3)o2)cc1)[C@@H]1CCCN1C(=O)CC1CC1` [Example D-57, (2S,2′S)-N,N′-(1,3,4-oxadiazole-2,5-diyldi-4,1-phenylene)bis[1-(cyclopropylacetyl)-2-pyrrolidinecarboxamide]] as the compound, how does the EC50 read?
A: Its EC50 is 1000 to 10000 nM.

Q: `O=C(Nc1ccc(-c2nnc(-c3ccc(NC(=O)[C@@H]4CCCN4C(=O)[C@H]4CCCO4)cc3)o2)cc1)[C@@H]1CCCN1C(=O)[C@H]1CCCO1` [RK-15, (2S,2′S)-N,N′-(1,3,4-oxadiazole-2,5-diyldi-4,1-phenylene)bis(1-((2R)-tetrahydro-2-furanylcarbonyl)-2-pyrrolidinecarboxamide)] was tested. Which EC50 did it give?
A: Its EC50 is 1000 to 10000 nM.

Q: `CC(=O)N[C@@H](C(=O)N1CCCC1C(=O)Nc1ccc(-c2cc(-c3ccc(NC(=O)C4CCCN4C(=O)[C@H](NC(C)=O)c4ccccc4)cc3)[nH]n2)cc1)c1ccccc1` (stereo partly drawn) [OL-42, N,N′-(1H-pyrazole-3,5-diyldi-4,1-phenylene)bis(1-((2R)-2-acetamido-2-phenylacetyl)-2-pyrrolidinecarboxamide)] was tested. Which EC50 did it give?
A: Its EC50 is less than 4.57 nM.

same assay, conditions: Hepatitis C virus, HCV 1b genotype replicon; class symbols; read-out: EC50 Range against HCV 1b

Q: How did the EC50 turn out when `COC(C(=O)N1C[C@H](O)C[C@H]1C(=O)Nc1ccc(-c2cnc(-c3ccc(NC(=O)[C@@H]4C[C@@H](O)CN4C(=O)C(OC)c4ccccc4)cc3)o2)cc1)c1ccccc1` (stereo partly drawn) [XY-49, (2S,4R,2′S,4′R)-N,N′-(1,3-oxazole-2,5-diyldi-4,1-phenylene)bis(4-hydroxy-1-(methoxy(phenyl)acetyl)-2-pyrrolidinecarboxamide)] was run?
A: Its EC50 is 4.57 to 99 nM.

Q: For `CO[C@@H](C(=O)N1CCC[C@H]1C(=O)Nc1ccc(-c2cnc(-c3ccc(NC(=O)[C@@H]4CCCN4C(=O)[C@H](OC)c4ccccc4)cc3)o2)cc1)c1ccccc1` [XY-26, (2S,2′S)-N,N′-(1,3-oxazole-2,5-diyldi-4,1-phenylene)bis(1-((2R)-2-methoxy-2-phenylacetyl)-2-pyrrolidinecarboxamide)], which EC50 is on record?
A: Its EC50 is 1000 to 10000 nM.

Q: Which EC50 does the source give for `COc1cc(C(=O)N2CCC[C@H]2C(=O)Nc2ccc(-c3nnc(-c4ccc(NC(=O)[C@@H]5CCCN5C(=O)c5cc(Cl)nc(OC)c5)cc4)o3)cc2)cc(Cl)n1` [RK-40, (2S,2′S)-N,N′-(1,3,4-oxadiazole-2,5-diyldi-4,1-phenylene)bis(1-(2-chloro-6-methoxyisonicotinoyl)-2-pyrrolidinecarboxamide)] here?
A: The EC50 was 1000 to 10000 nM.

Q: Which EC50 does the source give for `O=C(Nc1ccc(-c2cnc(-c3ccc(NC(=O)[C@@H]4CCCN4C(=O)Cn4c(=O)[nH]c5ccccc54)cc3)o2)cc1)[C@@H]1CCCN1C(=O)Cn1c(=O)[nH]c2ccccc21` [JR-9, (2S,2′S)-N,N′-(2,5-oxazolediyldi-4,1-phenylene)bis[1-[(2,3-dihydro-2-oxo-1H-benzimidazol-1-yl)acetyl]-2-pyrrolidinecarboxamide]] here?
A: Its EC50 is 100 to 999 nM.

Q: `Cc1ccc(C)c(C(=O)N2CCC[C@H]2C(=O)Nc2ccc(-c3cnc(-c4ccc(NC(=O)[C@@H]5CCCN5C(=O)c5cc(C)ccc5C)cc4)o3)cc2)c1` [XY-43, (2S,2′S)-N,N′-(1,3-oxazole-2,5-diyldi-4,1-phenylene)bis(1-(2,5-dimethylbenzoyl)-2-pyrrolidinecarboxamide)] was tested. Which EC50 did it give?
A: The EC50 was 1000 to 10000 nM.

Q: For `O=C(Nc1ccc(-c2cnc(-c3ccc(NC(=O)[C@@H]4CCCN4C(=O)[C@H]4CCCO4)cc3)o2)cc1)[C@@H]1CCCN1C(=O)[C@H]1CCCO1` [XY-32, (2S,2′S)-N,N′-(1,3-oxazole-2,5-diyldi-4,1-phenylene)bis(1-((2R)-tetrahydro-2-furanylcarbonyl)-2-pyrrolidinecarboxamide)], which EC50 is on record?
A: The EC50 was 4.57 to 99 nM.

Q: How did the EC50 turn out when `N#CC1(C(=O)N2CCC[C@H]2C(=O)Nc2ccc(-c3cnc(-c4ccc(NC(=O)[C@@H]5CCCN5C(=O)C5(C#N)CC5)cc4)o3)cc2)CC1` [XY-2, (2S,2′S)-N,N′-(1,3-oxazole-2,5-diyldi-4,1-phenylene)bis(1-((1-cyanocyclopropyl)carbonyl)-2-pyrrolidinecarboxamide)] was run?
A: Its EC50 is 100 to 999 nM.

Q: With `Cc1noc(C)c1C(=O)N1C[C@H](OC(C)(C)C)C[C@H]1C(=O)Nc1ccc(-c2cnc(-c3ccc(NC(=O)[C@@H]4C[C@@H](OC(C)(C)C)CN4C(=O)c4c(C)noc4C)cc3)o2)cc1` [XY-72, (2S,4R,2′S,4′R)-N,N′-(1,3-oxazole-2,5-diyldi-4,1-phenylene)bis(4-tert-butoxy-1-((3,5-dimethyl-4-isoxazolyl)carbonyl)-2-pyrrolidinecarboxamide)] as the compound, how does the EC50 read?
A: The EC50 was 100 to 999 nM.

same assay, conditions: Hepatitis C virus, HCV 1b genotype replicon; read-out: EC50 1b

Q: `O=C(Nc1ccc(-c2nnc(-c3ccc(NC(=O)[C@@H]4CCCN4C(=O)Cc4ccccc4)cc3)o2)cc1)[C@@H]1CCCN1C(=O)Cc1ccccc1` [MS-9, (2S,2′S)-N,N′-(4,4′-(1,3,4-oxadiazole-2,5-diyl)bis(4,1-phenylene))bis(1-(2-phenylacetyl)pyrrolidine-2-carboxamide)] was tested. Which EC50 did it give?
A: Its EC50 is 150 nM.

Q: How did the EC50 turn out when `CC(=O)N1CCC[C@H]1C(=O)Nc1ccc(-c2cnc(-c3ccc(NC(=O)C4CCN(C(=O)OCc5ccccc5)C4)cc3)o2)cc1` (stereo partly drawn) [MS-4, benzyl 3-((4-(5-(4-((1-acetyl-L-prolyl)amino)phenyl)-1,3-oxazol-2-yl)phenyl)carbamoyl)-1-pyrrolidinecarboxylate] was run?
A: The EC50 was 901 nM.

Q: How did the EC50 turn out when `O=C(Nc1ccc(-c2nnc(-c3ccc(NC(=O)[C@@H]4CCCN4C(=O)CC4CC4)cc3)o2)cc1)[C@@H]1CCCN1C(=O)CC1CC1` [Example D-57, (2S,2′S)-N,N′-(1,3,4-oxadiazole-2,5-diyldi-4,1-phenylene)bis[1-(cyclopropylacetyl)-2-pyrrolidinecarboxamide]] was run?
A: The EC50 was 1950 nM.

From US8735398B2 (Bristol-Myers Squibb Company, priority 2009, dated 2014)
